The values that follow come from patent US20160038651A1, “COMPOUNDS AND COMPOSITIONS FOR DRUG RELEASE” (INTERFACE BIOLOGICS, INC., priority 2013, published 2016).

The subject of data set [1] is S. aureus (ATCC 25923). Nature of the data set: MIC & MBC determination, standard broth microdilution method. It is filed as cell-based. The conditions noted are these: for antimicrobial activity: broth microdilution, up to the highest concentration tested; for effect of the combination on the activity of CHX-A: tested in combination with CHX-A. The source says: The antimicrobial efficacy of Compound 2 and drug released from Compound 2 was investigated using a standard broth microdilution method. The minimum inhibitory concentration (MIC) and minimum bactericidal concentration (MBC) were investigated for Compound 2, drug released from Compound 2, triethylene glycol (TEG), Ciprofloxacin hydrochloride (Cipro®HCl), chlorhexidine diacetate (CHX-A), and Compound 2+CHX-A. The MIC is defined as the lowest concentration of an antimicrobial agent that will inhibit visible growth of a microorganism after overnight incubation. The MBC is defined as the lowest concentration of an antimicrobial agent required to kill 99.9% of a microorganism population. This study was carried out using two gram positive bacteria, E. faecalis (ATCC 29212) and S. aureus (ATCC 25923), and two gram negative bacteria, E. coli (ATCC 25922) and P. aeruginosa (ATCC 27853). The test samples were prepared using 2-fold dilutions per well and covered a concentration range at least 2 dilutions above and 2 dilutions below literature MIC values for the microorganisms tested.
The antimicrobial efficacy of Compound 3 and drug released from Compound 3 investigated using a standard broth microdilution method. The MIC and MBC were investigated for Compound 3, drug released from Compound 3, TEG, Cipro®HCl, CHX-A, and Compound 3+CHX-A. This study was carried out using two gram positive bacteria, E. faecalis (ATCC 29212) and S. aureus (ATCC 25923), and two gram negative bacteria, E. coli (ATCC 25922) and P. aeruginosa (ATCC 27853). The test samples were prepared using 2-fold dilutions per well and covered a concentration range at least 2 dilutions above and 2 dilutions below literature MIC values for the microorganisms tested.
For orientation: Broth dilution looks for growth in wells or tubes with falling amounts of substance.

For data set [2], the system named is S. aureus (ATCC 25923). The conditions noted are these: cited from earlier work.
Data set [3] can be described thus: Accelerated drug release in acidic, basic or neutral conditions (RP-HPLC). It is filed as physicochemical. The conditions noted are these: 37° C. As for the experimental part:
Compound 2 was prepared at 10 mg/ml in 0.1 N HCl (final pH ˜4), 0.1 N NaOH (final pH ˜10), and PBS (final pH ˜7). Samples were incubated at 37° C. in acidic, basic, or neutral conditions. At each time point, the drug concentration was quantified by RP-HPLC.

The subject of data set [4] is New Zealand rabbits. Nature of the data set: Intracutaneous Reactivity, ISO 10993-10: 2010. Format: in vivo. As to conditions: 0.2 mL intracutaneous injections, scored after 24, 48, 72 h. As for the experimental part:
(§1) Compound 2 was dissolved in PBS (9.2×10 mg/mL) and tested for Intracutaneous Reactivity in accordance with ISO 10993-10: 2010 Standard, Biological Evaluation of Medical Devices, Part 10: Tests for Irritation and Skin Sensitization, Pages 11-14. Each rabbit received five sequential 0.2 mL intracutaneous injections along either side of the dorsal mid-line with the test article on one side and the control on the other. Three New Zealand rabbits were used per sample and control. The injection sites were observed and scored for erythema (redness) and edema (swelling) after 24, 48, and 72 h on a scale of 1 to 4.
as §1, with “Compound 3” for “Compound 2”, “PBS (5.4×10^−2” for “PBS (9.2×10”

The nature of data set [5]: Drug release in solution (PBS pH 7.4, 37° C., RP-HPLC). Format: physicochemical. The conditions noted are these: 0.1 mg/ml in PBS pH 7.4, 37° C. As for the experimental part: Compound 2 was dissolved in PBS (pH 7.4) at 0.1 mg/ml and placed in incubator at 37° C. At each time point (0, 1, 3, 7, 14, 21, & 28 days), solution was removed from incubator and analyzed for the drug by RP-HPLC using established protocols (FIG. 6). […] The release profile of compound 2 was also evaluated in a device prototype assembly using bovine serum, blood (porcine) or a gel matrix.
Compound 3 was dissolved in PBS (pH 7.4) at 0.1 mg/ml and placed in incubator at 37° C. At each time point (0, 1, 3, 7, 14, 21, & 28 days), solution was removed from incubator and analyzed for drug by RP-HPLC using established protocols.

Data set [6] deals with mice. Nature of the data set: Acute Systemic Toxicity following ISO 10993-11. It is filed as in vivo. As to conditions: single injection 50 mL/kg per mouse, observed to 72 h. As for the experimental part: A single injection dose of 50 mL/kg per mouse (˜1 mL) was administered to 5 mice per test sample.

Converted amounts (≈) assume the structure as drawn. Where two headings read alike, the source gives them in different places.

Regarding `CC(=O)O.CC(=O)O.NC(=N\CCCCCC/N=C(N)/N=C(\N)Nc1ccc(Cl)cc1)/N=C(\N)Nc1ccc(Cl)cc1` [CHX-A, chlorhexidine diacetate], the “MBC Experimental” value lay within 1 to 4 µg/mL in data set [1] (S. aureus, Table 4) and 1 to 4 µg/mL in data set [1] (S. aureus, Table 5). In addition, the “MIC Experimental” value in data set [1] (S. aureus, Table 4) was determined as 1 µg/mL; in data set [1] (S. aureus, Table 5, in µg/mL), 1. In addition, the “MBC Literature” value in data set [2] (Table 4) and in data set [2] (Table 5) was 3.9 µg/mL in each case. Moreover, the “MIC Literature” value in data set [2] (Table 4) and in data set [2] (Table 5) was 0.9 µg/mL in each case.
For the compound `O=C(O)c1cn(C2CC2)c2cc(N3CCNCC3)c(F)cc2c1=O` [Cipro Released from Compound 3], the “MBC Experimental” value in data set [1] (S. aureus, Table 5) came out at 1 µg/mL (≈ 3.02 µM). Also, in data set [1] (S. aureus, Table 5, in µg/mL), the “MIC Experimental” value was 0.5. Further, the antimicrobial activity entry in data set [1] was “antimicrobial activity consistent with both the Cipro®HCl controls and literature values”.
Consider `O=C(OCCOCCOCCOC(=O)c1cn(C2CC2)c2cc(N3CCNCC3)c(F)cc2c1=O)c1cn(C2CC2)c2cc(N3CCNCC3)c(F)cc2c1=O` [Compound 2], for which, in data set [1] (S. aureus, Table 4), the “MBC Experimental” value was above 78 µg/mL and the “MIC Experimental” value is above 78 µg/mL. In addition, in data set [1], the antimicrobial activity entry is reported as “did not show any antimicrobial activity” and the “effect of the combination on the activity of CHX-A” value is reported as “did not affect the activity of CHX-A”. Besides, the drug release in data set [3] (10 mg/ml in 0.1 N HCl (final pH ~4), after 7 days) is reported as around 71%. The same compound came in with a drug release in data set [3] (10 mg/ml in 0.1 N NaOH (final pH ~10), in less than 1 day) of 100%. This compound had a drug release in data set [3] (10 mg/ml in PBS (final pH ~7), after 7 days) of around 2%. The “irritation (erythema and edema, Intracutaneous Reactivity)” value in data set [4] (in PBS 9.2×10 mg/mL) is “non-irritant”. For the same compound, the total drug released in data set [5] (after 28 days) was around 8%. For the same compound, in data set [6] (in PBS 4×10^−5-9.7×10^−1 mg/mL, higher dosage), the “signs of toxicity (Acute Systemic Toxicity)” value is given as “no signs of toxicity”.
Take `O=C(OCCOCCOCCO)c1cn(C2CC2)c2cc(N3CCNCC3)c(F)cc2c1=O` [Compound 3]: the “MBC Experimental” value in data set [1] (S. aureus, Table 5) was above 55.5 µg/mL. In data set [1] (S. aureus, Table 5, in µg/mL), the “MIC Experimental” value is given as above 55.5. Besides, in data set [1], the antimicrobial activity entry is on record as “did not show any antimicrobial activity” and the “effect of the combination on the activity of CHX-A” value is recorded as “did not affect the activity of CHX-A”. For the same compound, the “irritation (erythema and edema, Intracutaneous Reactivity)” value in data set [4] (in PBS 5.4×10^−2 mg/mL) is given as “non-irritant”. Moreover, the “drug concentration with time (drug release)” value in data set [5] (out to at least 28 days) is given as “linear increase”. Besides, the “signs of toxicity (Acute Systemic Toxicity)” value in data set [6] (in PBS 8×10^−4-8×10^−2 mg/mL, all concentrations) is given as “no signs of toxicity”.
With `OCCOCCOCCO` [TEG, triethylene glycol], the “MBC Experimental” value in data set [1] (S. aureus, Table 5) is above 100 µg/mL. Moreover, the “MIC Experimental” value in data set [1] (S. aureus, Table 5, in µg/mL) is listed as above 100. Moreover, the MBC in data set [1] (Staphylococcus aureus, ATCC25923, S. aureus, Table 4, read-out: MBC Experimental) was above 100 µg/mL. Besides, the MIC in data set [1] (Staphylococcus aureus, ATCC25923, S. aureus, Table 4, read-out: MIC Experimental) is above 100 µg/mL. Moreover, the antimicrobial activity result in data set [1] was “No antimicrobial activity”.
Ciprofloxacin hydrochloride [Cipro*HCl]: the “MBC Experimental” value in data set [1] (S. aureus, Table 4) was 0.5 to 1 µg/mL; in data set [1] (S. aureus, Table 5), 0.5 to 1 µg/mL. Also, the “MIC Experimental” value in data set [1] (S. aureus, Table 4) was 0.25 to 0.5 µg/mL; in data set [1] (S. aureus, Table 5, in µg/mL), 0.25-0.5. For the same compound, the “MBC Literature” value in data set [2] (Table 4) and in data set [2] (Table 5) was 0.9 µg/mL throughout. Further, the “MIC Literature” value in data set [2] (Table 4) and in data set [2] (Table 5) was 0.5 µg/mL each time.

One may read the MBC as the smallest concentration meeting the test's criterion for killing. As usually defined, the MIC is the lowest concentration found to suppress growth.
